From patent US20260226006A1, “INDOLE COMPOUND, PREPARATION METHOD THEREFOR AND USE THEREOF” (SUZHOU MERNA THERAPEUTICS CO. LTD, priority 2023, published 2026)

Columns and labels:
[1] = test system: skin of hind limb toes of mice; experiment: Chemotherapeutic drug-induced mouse models with hand-foot syndrome (Example 23); type: in vivo, ICR mice; settings: for degree of swelling of hind limb toes / epidermal layer and stratum corneum in skin tissues of hind limb toes (pathological staining): modeling drug oral for 14 days; for skin appearance of hind limb toes: modeling for 14 days, capecitabine 200 mg/kg or docetaxel 25 mg/kg oral
Source text: After adaptive feeding for 7 days, SPF-grade ICR mice (male, 5-6 weeks old, with a body weight of approximately 35 g) were randomly divided into groups, including a blank control group (6 mice), a capecitabine modeling group (6 mice), a docetaxel modeling group (6 mice), a capecitabine+compound 2b group (6 mice), a docetaxel+compound 2b group (6 mice), a capecitabine+nicotinamide group (6 mice), and a docetaxel+nicotinamide group (6 mice). The groups were respectively administered corresponding modeling drugs by oral gavage (capecitabine at 200 mg/kg and docetaxel at 25 mg/kg) once daily, and the blank control group was administered an equivalent volume of normal saline. After administration with the chemotherapeutic drugs for 2 weeks, the compound ointments (at a compound content of 3%) used in Example 22 were respectively applied topically in the groups, or nicotinamide was orally administered (100 mg/kg) once daily continuously for 16 days.
Measurement of the degree of swelling of toes: The degree of swelling of hind limb toes of the mice was measured using a toe swelling tester (KW-7C, Nanjing Calvin Biotechnology Co., Ltd.) before administration with the modeling drugs, after administration with the modeling drugs for 2 weeks, and before sacrifice, respectively. Before measurement, ankle joints of hind paws of the mice were marked at same positions before administration, after administration for 2 weeks, and before sacrifice. During measurement, water was properly located at the same level as the marked positions, and numerical values were recorded after becoming stable.
Pathological staining of skin tissues: Skin tissue samples were selected from hind limb toes of the mice and placed in 4% paraformaldehyde for fixation at room temperature for 4 hours. Then, the tissues were taken out and rinsed with running water for several hours. The samples were subjected to dehydration treatment with 70%, 80%, and 90% ethanol solutions, followed by treatment with a mixed solution of equal amounts of absolute alcohol and xylene for 15 minutes, and then permeabilized twice with a xylene solution for 15 minutes each time until the samples became transparent. The samples were placed in a mixture of half xylene and half paraffin for soaking for 15 minutes, and then, paraffin I and paraffin II were added for wax penetration for one hour, respectively. After embedding with paraffin, the samples were sectioned, baked, dewaxed, and hydrated. Then, the hydrated sections were placed in a hematoxylin solution (ZSGB-BIO, article No. 23041001) for staining for 3 minutes, and a differentiation solution of hydrochloric acid in ethanol was added for differentiation for 15 seconds. After rinsing with water, a Scott bluing solution (Servicebio, article No. 20230801) was added for bluing for 15 seconds. After rinsing with running water, the sections were stained with an eosin solution (Solarbio, article No. 33535) for 3 minutes, rinsed with running water, dehydrated, permeabilized, sealed, and inspected under a microscope.
Immunohistochemical staining: After baking, dewaxing, and hydration, paraffin sections of skin tissues of hind limb toes of the mice were subjected to antigen retrieval using a 0.2 M citric acid buffer solution (containing 1.534 g of citric acid, 3.1 g of sodium citrate, and 100 mL of distilled water, pH 4.7). Endogenous […] was removed using 3% hydrogen peroxide (Shandong Annjet High-Tech Disinfection Technology Co., Ltd., article No. 20290902), and the sections were incubated at room temperature for 10 minutes and then fully rinsed with a PBS buffer solution (containing 8 g of NaCl, 0.2 g of KCl, 1.44 g of Na2HPO4, and 1 M HCl, pH 7.4). The sections were permeabilized with 0.5% Triron-X-100 (AmyJet Scientific, article No. A-CSH436-100 mL), respectively permeabilized with mouse anti-IL-1β and rabbit IL-8 for 10 minutes, and not permeabilized with rabbit anti-IL-6. […]

[2] = test system: HaCat cells; experiment: m6A methylation level of drug-treated HaCat keratinocytes by nanopore sequencing (Example 14); type: cell-based, human; settings: 50 nM drug, 24 hours
Description: 1*10^8 HaCat cells were seeded in culture dishes, into which 50 nM drugs (including sorafenib, capecitabine, docetaxel, and osimertinib) were added, respectively. The cells were cultured in an incubator containing 5% CO2 at 37° C. for 24 hours and washed with PBS after culture media were removed. Centrifugation was performed, the supernatant was discarded, and then, 400 μL of an RLT cell lysis buffer (QIAGEN, Cat. #79216) was added. A portion of samples were selected, into which 400 μL of 70% ethanol was added. The mixture was evenly stirred and then transferred to an RNeasy mini column, and RNA was extracted using an RNeasy mini kit (QIAGEN, Cat. #74104). 2 μL of an RNA sample was selected and dissolved in 98 μL of a 10 mM Tris-HCl buffer solution, and the absorbance at 260 nm was measured using a Nanodrop (Thermo Fisher Scientific) to determine the RNA concentration.
40 μg of an RNA sample was selected for enrichment of mRNA (PolyA+RNA) using an NEBNext Poly(A) mRNA magnetic isolation module (NEB, Cat. #E7490), and then, a 3′ end of the above enriched mRNA (PolyA+RNA) molecule was ligated with reverse transcription adapter RTA using a direct RNA sequencing kit (Oxford Nanopore Technologies, Cat. #SQK-RNA002). A reverse transcription reaction was performed with the mRNA (PolyA+RNA) molecule as a template to synthesize a complementary strand, a terminal end of the reverse transcription adapter RTA was ligated with a sequencing adapter (RNA adapter) to form a final sequencing library, and quantitative detection was performed using a Qubit™ dsDNA HS assay kit (Invitrogen, Cat. #LOT2133187).
After quality inspection of the library, the prepared sequencing library was loaded onto a PromethION flow cell chip (Oxford Nanopore Technologies, Cat. #FLO-MIN106D), and placed in a PromethION sequencer (Oxford Nanopore Technologies) for sequencing by selecting a matched sequencing mode. Basecalling was performed on sequencing data through guppy, and m6A methylation analysis was performed on original fast5 data.

[3] = test system: HaCat cells; experiment: m6A methylation level of human HaCat keratinocytes, EpiQuik m6A RNA methylation quantification kit (Example 20); type: cell-based; settings: 50 nM drug alone; for fold induction at 0.05 µM: Homo sapiens, HaCat cells, 24 hours, read-out: m6A fold change relative to control group 1
Description: HaCat cells were cultured in a DMEM culture medium containing 10% fetal bovine serum, 100 U/mL penicillin, and 100 μg/mL streptomycin. Culture dishes were placed in an incubator containing 5% CO2 for culture at 37° C. for 24 hours. An equal volume of DMSO was added in control group 1, 50 nM sorafenib, capecitabine, docetaxel, and osimertinib were respectively added in control groups A, B, C, and D, and 400 nM test compounds or nicotinamide were respectively added in sample groups A1-17, B1-17, C1-17, and D1-17 after the addition of 50 nM corresponding compounds. The cells were continuously cultured for 24 hours, washed with PBS, and then collected by high-speed centrifugation. Total RNA was extracted using a Trizol reagent (Sigma Aldrich), and RNA m6A methylation of a sample was quantitatively detected using an EpiQuik m6A RNA methylation quantification kit. The concentrations of positive control samples for a standard curve were 0.01 ng/μl, 0.02 ng/μl, 0.05 ng/μl, 0.1 ng/μl, 0.2 ng/μl, and 0.5 ng/μl. The absorbance at 450 nm was read using a microplate reader (Tecan GENios). A quantitative calculation formula for m6A is as follows:
m6A (ng)=(absorbance of sample well−absorbance of background well)/slope of standard curve m6A (%)=m6A (ng)/RNA amount of sample (ng)*100%.

[4] = test system: NAP1L2 mRNA in HaCat cells; experiment: NAP1L2 mRNA expression in HaCat cells by RT-PCR (Example 16); type: cell-based, human; settings: HaCat keratinocytes, 24 hours
Description: 1*10^8 HaCat cells were seeded in culture dishes, into which a recombinant protein of m6A methylase METTL3 (Abcam, Cat. #ab271611) and a recombinant protein of m6A demethylase FTO (Abcam, Cat. #ab271525) were added, or METTL3 siRNA (sh-METTL3, GeneChem) and FTO siRNA (sh-FTO, GeneChem) were transfected, respectively. The cells were placed in an incubator containing 5% carbon dioxide for culture at 37° C. for 24 hours, washed with PBS, and then collected by high-speed centrifugation. Total RNA was extracted using a Trizol reagent (Sigma Aldrich). 1 μg of RNA was reverse-transcribed into cDNA using a cDNA reverse transcription kit (Transgene Biotech, Cat. #AT311-03). 1.25 μL of a primer (Beyotime, Cat. #QH18721S), 10 μL of an iTag Universal SYBR Green supermix (Bio-Rad, Cat. #172-5125), and an appropriate amount of DEPC ultrapure water were added to formulate 20 μL of a reaction solution to perform an RT-PCR reaction. Upon completion of the reaction, the reaction solution was subjected to agarose gel electrophoresis to determine the mRNA expression amount of NAP1L2.

[5] = test system: MMP2 and MMP9 in HaCat keratinocytes; experiment: Expression of matrix metalloproteinases in HaCat keratinocytes, RT-PCR and Western blot (Example 17); type: cell-based, human; settings: 24 hours
Description: 1*10^8 HaCat cells were seeded in culture dishes, into which a human recombinant NAP1L2 protein (Abcam, Cat. #ab117213), sorafenib, capecitabine, docetaxel, and osimertinib were added, or NAP1L2 siRNA (sh-NAP1L2, GeneChem) was transfected, respectively. The cells were placed in an incubator containing 5% carbon dioxide for culture at 37° C. for 24 hours, washed with PBS, and then collected by high-speed centrifugation. An RLT lysis buffer was added to the above collected cells, the mixture was shaken at 4° C. for half an hour and centrifuged to collect the supernatant, and the expression of matrix metalloproteins was measured by Western blot.
Total RNA was extracted from the above collected cells using a Trizol reagent (Sigma Aldrich). 1 μg of RNA was reverse-transcribed into cDNA using a cDNA reverse transcription kit (Transgene Biotech, Cat. #AT311-03). 1.25 μL of a primer (SinoBiological, Cat. #HP100168&HP100367), 10 μL of an iTagUniversal SYBR Green supermix (Bio-Rad, Cat. #172-5125), and an appropriate amount of DEPC ultrapure water were added to formulate 20 μL of a reaction solution to perform an RT-PCR reaction. Upon completion of the reaction, the reaction solution was subjected to agarose gel electrophoresis to determine the mRNA expression amounts of the matrix metalloproteins.

CCCCCOC(=O)Nc1nc(=O)n([C@@H]2O[C@H](C)[C@@H](O)[C@H]2O)cc1F [Capecitabine, capecitabine]
cytokine IL-8 in skin tissues of hind limb toes (immunohistochemistry) ([1]; capecitabine oral for 14 days): significantly increased
degree of swelling of hind limb toes [1]: swelling of the hind limb toes of the mice is caused
epidermal layer and stratum corneum in skin tissues of hind limb toes (pathological staining) [1]: significantly thickened
skin appearance of hind limb toes [1]: obvious erythema, rhagades, and blisters
m6A methylation level of HaCat cells, increase compared with blank control group [2]: 6.01 times
m6A methylation level of human HaCat keratinocytes [3]: significantly increase
fold induction at 0.05 µM [3]: 6.7

CC(=O)O[C@@]12CO[C@@H]1C[C@H](O)[C@@]1(C)C(=O)[C@H](O)C3=C(C)[C@@H](OC(=O)[C@H](O)[C@@H](NC(=O)OC(C)(C)C)c4ccccc4)C[C@@](O)([C@@H](OC(=O)c4ccccc4)[C@H]21)C3(C)C [Docetaxel, docetaxel]
cytokine IL-6 in skin tissues of hind limb toes (immunohistochemistry) ([1]; docetaxel oral for 14 days): significantly increased
degree of swelling of hind limb toes [1]: swelling of the hind limb toes of the mice is caused
epidermal layer and stratum corneum in skin tissues of hind limb toes (pathological staining) [1]: significantly thickened
skin appearance of hind limb toes [1]: obvious erythema, rhagades, and blisters
m6A methylation level of HaCat cells, increase compared with blank control group [2]: 3.97 times
m6A methylation level of human HaCat keratinocytes [3]: significantly increase
fold induction at 0.05 µM [3]: 5.6

m6A demethylase FTO: recombinant protein of m6A demethylase FTO (Abcam, Cat. #ab271525)
mRNA expression amount of NAP1L2 [4]: significantly decreased

m6A methylase METTL3: recombinant protein of m6A methylase METTL3 (Abcam, Cat. #ab271611)
mRNA expression amount of NAP1L2 [4]: significantly increased

B1: recombinant NAP1L2 protein: human recombinant NAP1L2 protein (Abcam, Cat. #ab117213) (protein, UniProt Q9ULW6 1-460, looked up)
Nucleosome assembly protein …: MAESENRKELSESSQEEAGNQIMVEGLGEHLERGEDAAAGLGDDGKCGEEAAAGLGEEGENGEDTAAGSGEDGKKGGDTDEDSEADRPKGLIGYVLDTDFVESLPVKVKYRVLALKKLQTRAANLESKFLREFHDIERKFAEMYQPLLEKRRQIINAIYEPTEEECEYKSDSEDCDDEEMCHEEMYGNEEGMVHEYVDEDDGYEDYYYDYAVEEEEEEEEEDDIEATGEENKEEEDPKGIPDFWLTVLKNVDTLTPLIKKYDEPILKLLTDIKVKLSDPGEPLSFTLEFHFKPNEYFKNELLTKTYVLKSKLAYYDPHPYRGTAIEYSTGCEIDWNEGKNVTLKTIKKKQKHRIWGTIRTVTEDFPKDSFFNFFSPHGITSNGRDGNDDFLLGHNLRTYIIPRSVLFFSGDALESQQEGVVREVNDAIYDKIIYDNWMAAIEEVKACCKNLEALVEDIDR
mRNA and protein expression amounts of matrix metalloproteinases MMP2 and MMP9 [5]: significantly increased
